Experimental data taken from US11096985B2, “Antimicrobial peptides, their variants and uses” (priority 2015, dated 2021).
Where a SMILES comes first, the peptide text is derived from it. [ ]: non-standard residue; d: D form.

Assays:
[1] = system: clinical strains of Serratia marcescens; assay: MIC, clinical strains of Serratia marcescens; assay type: cell-based; parameters: unit: µg/mL; settings: microdilution, Muller Hinton broth-cation adjusted, 0.02% BSA, 0.2% acetic acid
Method in brief: (§1)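 MH broth; 5.0×10^5 cfu/ml; peptides 0.125–128 μg/ml; 37° C., 20–24 h; visual no-growth endpoint. Fungal MICs in potato dextrose broth.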

[2] = system: clinical strains of Klebsiella pneumoniae; assay: MIC, clinical strains of K. pneumoniae; assay type: cell-based; parameters: unit: μg/ml; settings: microdilution, Muller Hinton broth-cation adjusted, 0.02% BSA, 0.2% acetic acid
Method in brief: as §1

[3] = system: clinical strains of Proteus mirabilis; assay: MIC, clinical strains of Proteus mirabilis; assay type: cell-based; parameters: unit: µg/mL; settings: microdilution, Muller Hinton broth-cation adjusted, 0.02% BSA, 0.2% acetic acid
Method in brief: as §1

[4] = system: clinical strains of C. quillermondiae; assay: MIC, clinical yeast strains, C. quillermondiae; assay type: cell-based; settings: C. quillermondiae clinical yeast strain 1
Method in brief: as §1

[5] = system: clinical strains of Acinetobacter johnsonii; assay type: cell-based; settings: Acinetobacter johnsonii clinical strain 1; microdilution, Muller Hinton broth-cation adjusted, 0.02% BSA, 0.2% acetic acid
Method: Minimum inhibition concentrations (MICs) were determined against Escherichia coli (ATCC 25922), Staphylococcus aureus (ATCC 25923), Klebsiella pneumoniae (ATCC 10031) and Pseudomonas aeruginosa (ATCC 27853). Also clinical strains of E. coli, K. pneumoniae, E. cloacae, P. aeruginosa, Serratia marcescens, Proteus mirabilis, S. pneumoniae, Acinetobacter baumannii, A. johnsonii and S. aureus were used for MICs assays. Additionally, clinical strains of yeast including Candida albicans, C. glabrata, C. parapsilosis and C. quillermondiae were used. The susceptibility of these microorganisms to Chain peptides were determined using micro broth dilution assay. Colonies of the respective microorganism from Muller Hinton (MH) agar plates incubated overnight were suspended in MH broth media and final concentration of microorganism was adjusted to 5.0×10^5 cfu/ml. An aliquot of 10 μl of each Chain peptide, or gentamicin, tetracycline as reference antibiotics were added in differing concentrations along with 90 μl of bacterial suspension to 96 well polypropylene plates and incubated at 37° C. for 20 to 24 hours. Concentrations of Chain peptides and reference antibiotics ranged from 0.125 to 128 μg/ml and the MICs were recorded as the lowest concentration with no visual growth of bacteria. Similarly, antifungal MICs were tested in Potato dextrose broth.
Clinical strains of yeasts including Candida albicans, C. glabrata, C. parapsilosis and C. quillermondiae were also tested with the 12 Chain peptides. The minimum inhibitory concentration (MICs) varied between these peptides and are presented in Tables 4a, 4b, 4c and 5a, 5b, 5c. Peptides Chain 105, 201 and 308 are broad spectrum antimicrobials with MICs between 0.5-32 μg/ml against all the bacteria and yeasts tested, except Serratia marcescens and Proteus mirabilis, against which the MICs were between 64-128 μg/ml. Peptide Chain 306 has narrow spectrum activity against E.coli at 1 μg/ml and for the rest of the bacterial strains at >32 μg/ml (FIG. 10).

[6] = system: clinical strains of Escherichia coli; assay: MIC, clinical strains of E. coli; assay type: cell-based; parameters: unit: μg/ml; settings: microdilution, Muller Hinton broth-cation adjusted, 0.02% BSA, 0.2% acetic acid
Method in brief: as §1

[7] = system: clinical strains of Enterobacter cloacae; assay: MIC, clinical strains of Enterobacter cloacae; assay type: cell-based; parameters: unit: μg/ml; settings: microdilution, Muller Hinton broth-cation adjusted, 0.02% BSA, 0.2% acetic acid
Method in brief: as §1

[8] = system: clinical strains of Candida albicans; assay: MIC, clinical yeast strains, Candida albicans; assay type: cell-based; parameters: unit: μg/ml
Method in brief: as §1

[9] = system: clinical strains of C. glabrata; assay: MIC, clinical yeast strains, C. glabrata; assay type: cell-based, Candida glabrata; parameters: unit: μg/ml
Method in brief: as §1

[10] = system: clinical strains of Staphylococcus aureus; assay: MIC, clinical strains of S. aureus; assay type: cell-based; parameters: unit: μg/ml; settings: microdilution, Muller Hinton broth-cation adjusted, 0.02% BSA, 0.2% acetic acid
Method in brief: as §1

[11] = system: clinical strains of Pseudomonas aeruginosa; assay: MIC, clinical strains of P. aeruginosa; assay type: cell-based; parameters: unit: μg/ml; settings: microdilution, Muller Hinton broth-cation adjusted, 0.02% BSA, 0.2% acetic acid
Method in brief: as §1

[12] = system: clinical strains of Streptococcus pneumoniae; assay: MIC, clinical strains of Streptococcus pneumoniae; assay type: cell-based; parameters: unit: µg/mL; settings: microdilution, Muller Hinton broth-cation adjusted, 0.02% BSA, 0.2% acetic acid
Method in brief: as §1

[13] = system: clinical strains of Acinetobacter baumannii; assay: MIC, clinical strains of Acinetobacter baumannii; assay type: cell-based; settings: microdilution, Muller Hinton broth-cation adjusted, 0.02% BSA, 0.2% acetic acid
Method in brief: as §1

[14] = system: clinical strains of C. parapsilosis; assay: MIC, clinical yeast strains, C. parapsilosis; assay type: cell-based, Candida parapsilosis; parameters: unit: μg/ml
Method in brief: as §1

## CC(C)C[C@@H](NC(=O)[C@H](N)CCCNC(=N)N)C(=O)N[C@H](CCCCN)C(=O)N[C@H](Cc1c[nH]c2ccccc12)C(=O)N[C@H](Cc1ccccc1)C(=O)N[C@H](CC(C)C)C(=O)N[C@H](CC(C)C)C(=O)N[C@H](Cc1ccccc1)C(=O)N[C@H](CCCNC(=N)N)C(=O)N[C@H](CCCCN)C(=O)N[C@H](CCCNC(=N)N)C(=O)O [Chain308D] (H-[dR][dL][dK][dW][dF][dL][dL][dF][dR][dK][dR]-OH)
[1]; Serratia marcescens clinical strain 1
  Minimum inhibitory concentration: 128
[1]; Serratia marcescens clinical strain 2
  Minimum inhibitory concentration: 128
[1]; Serratia marcescens clinical strain 3
  Minimum inhibitory concentration: 64
[1]; Serratia marcescens clinical strain 4
  Minimum inhibitory concentration: >128
[1]; Serratia marcescens clinical strain 5
  Minimum inhibitory concentration: 128
[2]; Klebsiella pneumoniae clinical strain 1
  Minimum inhibitory concentration: 4
[2]; Klebsiella pneumoniae clinical strain 2
  Minimum inhibitory concentration: 4
[2]; Klebsiella pneumoniae clinical strain 3
  Minimum inhibitory concentration: 4
[2]; Klebsiella pneumoniae clinical strain 4
  Minimum inhibitory concentration: 4
[2]; Klebsiella pneumoniae clinical strain 5
  Minimum inhibitory concentration: 4
[3]; Proteus mirabilis clinical strain 1
  Minimum inhibitory concentration: >128
[3]; Proteus mirabilis clinical strain 2
  Minimum inhibitory concentration: 32
[3]; Proteus mirabilis clinical strain 3
  Minimum inhibitory concentration: 128
[3]; Proteus mirabilis clinical strain 4
  Minimum inhibitory concentration: >128
[3]; Proteus mirabilis clinical strain 5
  Minimum inhibitory concentration: >128
[4]
  Minimum inhibitory concentration: 4
[5]
  Minimum inhibitory concentration: 4
[6]; Escherichia coli clinical strain 1
  Minimum inhibitory concentration: 1
[6]; Escherichia coli clinical strain 2
  Minimum inhibitory concentration: 0.5
[6]; Escherichia coli clinical strain 3
  Minimum inhibitory concentration: 1
[6]; Escherichia coli clinical strain 4
  Minimum inhibitory concentration: 1
[6]; Escherichia coli clinical strain 5
  Minimum inhibitory concentration: 1
[7]; Enterobacter cloacae clinical strain 1
  Minimum inhibitory concentration: 2
[7]; Enterobacter cloacae clinical strain 2
  Minimum inhibitory concentration: 2
[7]; Enterobacter cloacae clinical strain 3
  Minimum inhibitory concentration: 2
[7]; Enterobacter cloacae clinical strain 4
  Minimum inhibitory concentration: 2
[7]; Enterobacter cloacae clinical strain 5
  Minimum inhibitory concentration: 2
[8]; Candida albicans clinical yeast strain 1
  Minimum inhibitory concentration: 16
[8]; Candida albicans clinical yeast strain 2
  Minimum inhibitory concentration: 16
[8]; Candida albicans clinical yeast strain 3
  Minimum inhibitory concentration: 16
[8]; Candida albicans clinical yeast strain 4
  Minimum inhibitory concentration: 16
[8]; Candida albicans clinical yeast strain 5
  Minimum inhibitory concentration: 16
[9]; C. glabrata clinical yeast strain 1
  Minimum inhibitory concentration: 16
[9]; C. glabrata clinical yeast strain 2
  Minimum inhibitory concentration: 16
[9]; C. glabrata clinical yeast strain 3
  Minimum inhibitory concentration: 16
[9]; C. glabrata clinical yeast strain 4
  Minimum inhibitory concentration: 16
[10]; Staphylococcus aureus clinical strain 1
  Minimum inhibitory concentration: 1
[10]; Staphylococcus aureus clinical strain 2
  Minimum inhibitory concentration: 2
[10]; Staphylococcus aureus clinical strain 3
  Minimum inhibitory concentration: 1
[10]; Staphylococcus aureus clinical strain 4
  Minimum inhibitory concentration: 2
[10]; Staphylococcus aureus clinical strain 5
  Minimum inhibitory concentration: 2
[11]; Pseudomonas aeruginosa clinical strain 1
  Minimum inhibitory concentration: 8
[11]; Pseudomonas aeruginosa clinical strain 2
  Minimum inhibitory concentration: 8
[11]; Pseudomonas aeruginosa clinical strain 3
  Minimum inhibitory concentration: 4
[11]; Pseudomonas aeruginosa clinical strain 4
  Minimum inhibitory concentration: 4
[11]; Pseudomonas aeruginosa clinical strain 5
  Minimum inhibitory concentration: 4
[12]; Streptococcus pneumoniae clinical strain 1
  Minimum inhibitory concentration: 8
[12]; Streptococcus pneumoniae clinical strain 2
  Minimum inhibitory concentration: 4
[12]; Streptococcus pneumoniae clinical strain 3
  Minimum inhibitory concentration: 8
[12]; Streptococcus pneumoniae clinical strain 4
  Minimum inhibitory concentration: 2
[12]; Streptococcus pneumoniae clinical strain 5
  Minimum inhibitory concentration: 4
[13]; Acinetobacter baumannii clinical strain 1
  Minimum inhibitory concentration: 4
[13]; Acinetobacter baumannii clinical strain 2
  Minimum inhibitory concentration: 4
[13]; Acinetobacter baumannii clinical strain 3
  Minimum inhibitory concentration: 4
[13]; Acinetobacter baumannii clinical strain 4
  Minimum inhibitory concentration: 2
[13]; Acinetobacter baumannii clinical strain 5
  Minimum inhibitory concentration: 2
[14]; C. parapsilosis clinical yeast strain 1
  Minimum inhibitory concentration: 8
[14]; C. parapsilosis clinical yeast strain 2
  Minimum inhibitory concentration: 8
[14]; C. parapsilosis clinical yeast strain 3
  Minimum inhibitory concentration: 8
[14]; C. parapsilosis clinical yeast strain 4
  Minimum inhibitory concentration: 4
